Results as given in PubChem BioAssay (NCI).
Several values for one entry are separate records, joined by “and”; a condition that tells them apart may be missing. Identical values can stand only once.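 Assay format: 96-well plates, 48-hour exposure. Abbreviation: GI50, concentration required for 50% inhibition of growth. TGI: total growth inhibition.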

Columns and labels:
Assay in all cases: NCI anticancer screen, dose series, 48 h
HCT-15 colon = system: HCT-15 colon
ACHN renal = system: ACHN renal
COLO 205 colon = system: COLO 205 colon
IGROV1 ovarian = system: IGROV1 ovarian
SK-MEL-5 melanoma = system: SK-MEL-5 melanoma
CCRF-CEM leukemia = system: CCRF-CEM leukemia
NCI-H522 lung = system: NCI-H522 lung
SK-MEL-2 melanoma = system: SK-MEL-2 melanoma
K-562 leukemia = system: K-562 leukemia
BT-549 breast = system: BT-549 breast

Compound | GI50 (HCT-15 colon) | TGI (HCT-15 colon) | GI50 (ACHN renal) | TGI (ACHN renal) | GI50 (COLO 205 colon) | TGI (COLO 205 colon) | GI50 (IGROV1 ovarian) | TGI (IGROV1 ovarian) | GI50 (SK-MEL-5 melanoma) [µM] | TGI (SK-MEL-5 melanoma) | GI50 (CCRF-CEM leukemia) | TGI (CCRF-CEM leukemia) | GI50 (NCI-H522 lung) | TGI (NCI-H522 lung) | GI50 (SK-MEL-2 melanoma) | TGI (SK-MEL-2 melanoma) | GI50 (K-562 leukemia) | TGI (K-562 leukemia) [µM] | GI50 (BT-549 breast) | TGI (BT-549 breast)
CCCCOC(=O)c1c(C)[nH]c(/C=C2\N=C(c3ccc[nH]3)C=C2OC)c1C | 0.053 µM | 1.29 µM | 0.146 µM | 1.3 µM | 0.274 µM | 1.67 µM | 0.232 µM | 2.39 µM | 0.1 | 0.265 µM | 0.0583 µM | > 20.4 µM | 0.174 µM | 1.68 µM | 0.103 µM | 0.381 µM | 0.155 µM | 8.61 | 0.65 µM | 12.1 µM
O=C(NN1C(=O)CSC1c1c(Cl)cccc1Cl)C(O)c1ccccc1 (configuration not stated) | 30.5 µM | > 100 µM | 28.4 µM | > 100 µM | 34.1 µM | > 100 µM | 40.8 µM | > 100 µM | 32.8 | > 100 µM | 43.7 µM | > 100 µM | 25.7 µM | > 100 µM | 50.5 µM | > 100 µM | 29.7 µM | 76 | 80 µM | > 100 µM
CC(=O)Nc1cc2c3c(cccc3c1)-c1ccccc1-2 | > 100 µM | > 100 µM | 19.2 µM | 52.2 µM | > 100 µM | > 100 µM | 24.2 µM | > 100 µM | > 100 | > 100 µM | 0.992 µM | > 100 µM | > 100 µM | > 100 µM | 70 µM | > 100 µM | > 100 µM | > 100 | 64.6 µM | > 100 µM
Nc1c(C(=O)Nc2cccc(C(F)(F)F)c2)sc2nc3c(cc12)CCCCCC3 | 2.63 µM | 15.3 µM | 1.85 µM | 4.46 µM | 3.07 µM | 14 µM |  |  | 2.15 | 15 µM | 5.73 µM | > 100 µM | 4.09 µM | 26.9 µM | 4.35 µM | 18.2 µM | 3.65 µM | 20 | 2.54 µM | 9.59 µM
C=C(Br)COc1ccc2c(C)cc(=O)oc2c1 |  | > 100 µM |  | > 100 µM |  | 16.7 µM |  | > 100 µM |  | 37.4 µM |  | > 100 µM |  | > 100 µM |  | > 100 µM |  | > 100 |  | > 100 µM
COc1cc2c(cc1OCCCN1CCN(C(=S)SCCC(C#N)(c3ccccc3)c3ccccc3)CC1)N=C[C@@H]1CCCN1C2=O | 1.68 µM | 3.48 µM | 0.875 µM | 2.12 µM | 1.3 µM | 2.78 µM | 0.381 µM | 1.74 µM | 1.31 | 2.75 µM | 0.235 µM | 0.537 µM | 0.523 µM | 2.43 µM | 1.08 µM | 2.91 µM | 0.573 µM |  | 1.07 µM | 3.79 µM
CC[C@@]1(O)C(=O)OCc2c1cc1n(c2=O)Cc2c-1nc1cc(F)c(C)c3c1c2[C@@H](NC(=O)CO)CC3 | 0.247 µM | > 100 µM | < 0.01 µM | 0.131 µM | 0.127 µM | 4.16 µM | 0.0449 µM | 1.92 µM | < 0.0109 | 0.119 µM | < 0.01 µM | > 100 µM | < 0.01 µM | 0.328 µM | 0.318 µM | 2.63 µM | 0.0193 µM | > 100 | < 0.0118 µM | 0.73 µM
O=C1OCC2=C1C(c1cccc(Cl)c1)c1cc3c(cc1N2CCO)CCC3 (configuration not stated) | 0.0471 µM | 12.6 µM | 0.0846 µM | 14.6 µM | 0.0401 µM | 0.309 µM | 0.121 µM | 15.6 µM | 0.0291 | 0.28 µM | 0.0416 µM | 14.1 µM | 0.0203 µM | 0.0603 µM | 0.0323 µM | 0.441 µM | 0.0478 µM | 14.4 | 0.166 µM | 8.69 µM
COCCn1c2c([n+](Cc3cnccn3)c1C)C(=O)c1ccccc1C2=O | 0.251 µM | > 100 µM | 0.04 µM | 2.11 µM | 0.0235 µM | 0.0626 µM | < 0.01 µM | < 0.0169 µM | < 0.01 | 0.0162 µM | 0.0207 µM | 0.345 µM | < 0.01 µM | < 0.01 µM | < 0.01 µM | 0.0127 µM | < 0.01 µM | 5.6 | 0.0264 µM | 0.0876 µM
Nc1cc(N)c2nc(NCCc3ccc(Cl)c(Cl)c3)cnc2c1 | 13.5 µM | 27.3 µM | 14.8 µM | 28 µM | 5.6 µM | 24.3 µM | 14.5 µM | 28.7 µM | 13.8 | 27.1 µM | 2.02 µM | 5.05 µM | 12.6 µM | 33.7 µM | 8.23 µM | 21.4 µM | 3.36 µM | 14.1 | 20.1 µM | 34.8 µM
CC[C@@H](C)/C=C(C)/C=C/C(=O)c1c(O)c(-c2ccc(O)cc2)cn(OC2CC(=O)CCC(C)OC(=O)CC2O)c1=O (some centres not stated) | 0.145 µM | 15.8 µM | 0.258 µM | 7.06 µM | 5.97 µM | 21.2 µM | 0.316 µM | 4.66 µM | 0.271 | 0.978 µM | 0.163 µM | 12.6 µM | 0.419 µM | 11.5 µM | 0.489 µM | 15.6 µM | 0.386 µM | > 47.9 | 0.554 µM | 16.2 µM
COc1cc2c(cc1-c1coc3cc(O)ccc3c1=O)OCO2 |  | 35.6 µM |  | 40.9 µM |  | > 100 µM |  | 53.7 µM |  | > 100 µM |  | > 100 µM |  | 36.2 µM |  | > 100 µM |  | > 100 |  | 41.2 µM
CN1CCN(CCC=C2c3ccccc3Sc3ccc(S(=O)(=O)N(C)C)cc32)CC1 | 3.3 µM and 2.52 µM | > 100 µM and 10.3 µM | 5.27 µM and 10.2 µM | 27.3 µM and 27.6 µM | 1.44 µM and 1.66 µM | 2.82 µM and 3.7 µM | 5.13 µM and 8.26 µM | 23.3 µM and 25.7 µM | 1.58 | 2.95 µM and 3.02 µM | 3.12 µM and 4.36 µM | 20.1 µM and 23 µM | 1.87 µM and 8.15 µM | 3.83 µM and 28.1 µM | 2.37 µM and 2.48 µM | 4.32 µM and 6.09 µM | 2.21 µM and 1.63 µM | 4.72 | 8.06 µM and 13 µM | 23 µM and 29.2 µM
